# Measurements taken from PMC5384777, “Three new C-27-carboxylated-lupane-triterpenoid derivatives from Potentilla discolor Bunge and their in vitro antitumor activities” (PLoS ONE, 2017).
# “And” between values parts separate entries of the source, which are not always exact repeats. Identical values can stand only once. Like-named read-outs stand apart in the source and are kept apart here.
# Key:
# in vitro = assay type: cell-based; details: human
# Procedure: (§1) The cytotoxic effects of Compounds 1–3 were estimated in vitro against HepG-2, MCF-7 and T-84 tumor cell lines by Cell Counting Kit-8 assay. Briefly, the cells were seeded into 96-well plates in triplicate at an initial number of 5,000 cells per well and cultured at 37°C, 5% CO2 for 24h, then treated with 0, 15, 20, 25, 30 μM of samples for another 24h. Ten microliters of the kit reagent was added to each well, and 2 h after all plates were scanned by a microplate reader (Thermo Fisher Scientific) at 450 nm. Cell cytotoxicity was calculated on the basis of absorbency.
# cytochrome c = assay: Western blot, cytochrome c; assay type: cell-based, human; details: HepG-2, 0, 15 and 30 μM, 24 h
# Procedure: (§2) HepG-2 cells were collected after treatments with Compound 1 (0, 15 and 30 μM) for 24 h and then lysed in ice-cold RIPA buffer (1×PBS, 1% NP-40, 0.5% sodium deoxycholate and 0.1% SDS) which containing 100 μg/mL PMSF, 5 μg/mL Aprotinin, 5 μg/mL Leupeptin, 5 μg/mL Pepstatin and 100 μg/mL NaF. After centrifugation at 12,000 rpm for 10 min, the protein in the supernatant was quantified by the Bradford method using Multimode varioscan instrument (Thermo Fischer Scientifics). 30 μg protein per lane was applied in 12% SDS polyacrylamide gel. After electrophoresis, the protein was transferred to a polyvinylidine difluoride (PVDF) membrane (Amersham Biosciences). The membrane was blocked in TBST containing 5% blocking powder (Santacruz) at room temperature for 2 h. The membrane was washed with TBST for 5 min, and primary antibody (Bax, Bcl-2, cytochrome c, caspase-9, -3) was added and incubated at 4°C overnight (O/N). After three washes in TBST, the membrane was cultivated with corresponding horseradish peroxidase-labeled secondary antibody (1:20000) (Santa Cruz) at room temperature for 1 h. Membranes were rinsed with TBST for three times, 15 min each, and the protein blots were visualized with chemiluminescence reagent (Thermo Fischer Scientifics Ltd.). The X-ray films were developed with developer and fixed with fixer solution.
# HepG-2 cells [1] = assay: Intracellular ROS assay (DCFH-DA); assay type: cell-based, human; details: 24 h, control 10.6%
# Procedure: HepG-2 cells were seeded into 6-well plates for 24 h and subjected to various treatments. Then, the cells were cultured in a […] medium solution containing […] DCFH-DA (Beyotime, Haimen, China) at 37°C for 30 min in dark, and then with 3 times PBS washes. Cellular fluorescence was quantified under Nikon ECLIPSETE2000-S fluorescence microscope at 485 nm excitation and 538 nm emission.
# HepG-2 cells [2] = assay: Annexin V-FITC/propidium iodide apoptosis analysis; assay type: cell-based, human; details: 24 h
# Procedure: The method for apoptosis analysis referred to the literature. Apoptosis was discriminated with the annexin V-FITC/propidium iodide test. Cells were seeded at 3 × 10^5/well in 10% FBS-DMEM into 6-well plates, and treated with Compound 1 with various concentrations. The cells were washed twice with cold Phosphate Buffered Saline (PBS) and then resuspended in 1 × Binding Buffer (0.1 M Hepes/NaOH (pH 7.4), 1.4 M NaCl, 25 mM CaCl2) at a concentration of 1 × 10^6 cells/mL. 100 μL of the solution (1 × 10^5 cells) was transferred to a 5 mL culture tube, and 5 μL of FITC Annexin V (BD, Pharmingen) and 5 μL of propidium iodide (PI) were added to each tube. The cells were gently vortexed and incubated at 25°C for 15 min in the dark. Then 200 μL of PBS was added to each tube. Analysis was performed with the system software (Cell Quest; BD Biosciences). The percentage of cells positive for PI and/or Annexin V-FITC was reported inside the quadrants. Lower left quadrant, viable cells (annexin V-/PI-); lower right quadrant, early apoptotic cells (annexin V+/PI-); upper right quadrant, late apoptotic cells (annexin V+/PI+); upper left quadrant, necrotic cells (annexin V-/PI+).
# Bcl-2 = assay: Western blot, Bcl-2; assay type: cell-based, human; details: HepG-2, 15 and 30 μM, 24 h, compared with control
# Procedure: as §2
# HepG-2 cells [3] = assay: AO/EB staining; assay type: cell-based, human; details: 15 and 30 μM, 24 h
# Procedure: HepG-2 cells were seeded on a sterile cover slip in 6-well tissue culture plates at a concentration of 5 ×10^4 cell/mL in a volume of 2 mL. Following incubation, the medium was removed and replaced with fresh medium plus 10% fetal bovine serum and supplemented with concentrations of Compound 1 for 24 h. After the treatment period, the cover slip with monolayer cells was inverted on a grass slide with 10 μL of AO/EB stain ([…]). Fluorescence was read on a Nikon ECLIPSETE2000-S fluorescence microscope.
# Bax = assay: Western blot, Bax; assay type: cell-based, human; details: HepG-2, 15 and 30 μM, 24 h, compared with control
# Procedure: as §2
# caspase-9 = assay: Western blot, caspase-9; assay type: cell-based, human; details: HepG-2, 15 and 30 μM, 24 h
# Procedure: as §2
# T-84 = assay: CCK-8 cytotoxicity assay, T-84; assay type: cell-based; details: Homo sapiens, read-out: Cytotoxicity (IC50) T-84
# Procedure: as §1
# MCF-7 = assay: CCK-8 cytotoxicity assay, MCF-7; assay type: cell-based; details: Homo sapiens, read-out: Cytotoxicity (IC50) MCF-7
# Procedure: as §1
# caspase-3 = assay: Western blot, caspase-3; assay type: cell-based, human; details: HepG-2, 15 and 30 μM, 24 h
# Procedure: as §2
# HepG-2 cells [4] = assay: Hoechst 33258 staining; assay type: cell-based, human; details: 15 and 30 μM, 24 h
# Procedure: HepG-2 cells grown on a sterile cover slip in 6-well plates were treated with Compound 1 for 24 h. The culture medium containing Compound was removed, and the cells were fixed in 4% paraformaldehyde for 10 min. After two PBS washes, the cells were stained with 0.5 mL of Hoechst 33258 (Beyotime, Haimen, China) for 5 min and again two PBS washes. The stained nuclei were viewed using a Nikon ECLIPSETE2000-S fluorescence microscope (OLYMPUS Co., Japan) under 350 nm excitation and 460 nm emissions.
# HepG-2 cells [5] = assay: Mitochondrial membrane potential (JC-1) staining; assay type: cell-based, human; details: 15 μM, 24 h
# HepG-2 = assay: CCK-8 cytotoxicity assay, HepG-2; assay type: cell-based, human; details: for IC50: Homo sapiens, read-out: Cytotoxicity (IC50) HepG-2
# Procedure: as §1
structure (smiles),measurement,setting,value
"CC(C=O)C1CCC2(C)CCC3(C(=O)O)C(CCC4C5(C)CCC(O)C(C)(C)C5CCC43C)C12 (stereo not drawn) [Compound 1, 3α-hydroxy-19α-hydrogen-29-aldehyde-27-lupanoic acid]","viability at 24 h, 35 µM",in vitro,> 90%
same,cytochrome c level in the cytosol,cytochrome c,gradually improved
same,ROS level,HepG-2 cells [1]; 15 μM,23.5%
same,ROS level,HepG-2 cells [1]; 30 μM,46.8%
same,melting point,,200 to 201 °C and 201 to 202 °C
same,"early apoptosis rate (annexin V+/PI-, LR)",HepG-2 cells [2]; 15 μM,6.96%
same,"late apoptosis rate (annexin V+/PI+, UR)",HepG-2 cells [2]; 15 μM,4.27%
same,"late apoptosis rate (annexin V+/PI+, UR)",HepG-2 cells [2]; 20 μM,10.61%
same,"early apoptosis rate (annexin V+/PI-, LR)",HepG-2 cells [2]; 25 μM,20.05%
same,"late apoptosis rate (annexin V+/PI+, UR)",HepG-2 cells [2]; 25 μM,14.30%
same,"early apoptosis rate (annexin V+/PI-, LR)",HepG-2 cells [2]; 30 μM,23.69%
same,"late apoptosis rate (annexin V+/PI+, UR)",HepG-2 cells [2]; 30 μM,22.93%
same,"early apoptosis rate (annexin V+/PI-, LR)",HepG-2 cells [2],16.14%
same,viability at 15 µM,"HepG-2 cells [2]; Homo sapiens, HepG2, 15 μM, read-out: viable cells (annexin V-/PI-, LL)",88.7%
same,viability at 20 µM,"HepG-2 cells [2]; Homo sapiens, HepG2, 20 μM, read-out: viable cells (annexin V-/PI-, LL)",72.9%
same,viability at 25 µM,"HepG-2 cells [2]; Homo sapiens, HepG2, 25 μM, read-out: viable cells (annexin V-/PI-, LL)",64.8%
same,viability at 30 µM,"HepG-2 cells [2]; Homo sapiens, HepG2, 30 μM, read-out: viable cells (annexin V-/PI-, LL)",52%
same,expression of Bcl-2,Bcl-2,inhibition on the expression
same,apoptosis by AO/EB staining,HepG-2 cells [3],able to induce apoptosis
same,Bax level,Bax,significant increase
same,cleavage of caspase-9,caspase-9,significantly induced cleavage
same,IC50,"T-84; T84, 24 h",27.9 ± 1.96 µM
same,IC50,"MCF-7; MCF7, 24 h",30.8 ± 1.88 µM
same,cleavage of caspase-3,caspase-3,significantly induced cleavage
same,apoptotic cells by Hoechst 33258 staining,HepG-2 cells [4],apoptotic cells increased gradually in a dose-dependent manner
same,"ΔΨm reduced to, of control",HepG-2 cells [5],69.1%
same,survival rate of HepG-2,HepG-2; 35 μM,9.50%
same,IC50,"HepG-2; HepG2, 24 h",17.8 ± 1.21 µM
"CC(C=O)[C@@H]1CC[C@]2(C)CC[C@]3(C(=O)O)C(CCC4[C@@]5(C)CC[C@@H](O)C(C)(C)C5CC[C@]43C)C12 (stereo partly drawn) [Compound 2, 3α-hydroxy-19β-hydrogen-29-aldehyde-27-lupanoic acid]",IC50,"T-84; T84, 24 h",27.9 ± 0.99 µM
same,IC50,"MCF-7; MCF7, 24 h",31 ± 1.83 µM
same,IC50,"HepG-2; HepG2, 24 h",18.2 ± 1.94 µM
"CC(=O)OC1CCC2(C)C(CCC3(C)C2CCC2C4C(C(C)C=O)CCC4(C)CCC23C(=O)O)C1(C)C (stereo not drawn) [Compound 3, 3α-acetyl-19α-hydrogen-29-aldehyde-27-lupanoic acid]",melting point,,200 to 201 °C
same,IC50,"T-84; T84, 24 h",40.6 ± 3.64 µM
same,IC50,"MCF-7; MCF7, 24 h",35.4 ± 1.52 µM
same,IC50,"HepG-2; HepG2, 24 h",25.3 ± 1.87 µM
"O=C1CCC[C@@H]2[C@H]3CCCN4CCC[C@@H](CN12)[C@@H]34 [Matrine, reference compound]",IC50,"T-84; T84, CCK-8, 24 h treatment, n = 3",32.8 ± 2.95 µM
same,IC50,"MCF-7; MCF7, CCK-8, 24 h treatment, n = 3",35.5 ± 2.92 µM
same,IC50,"HepG-2; HepG2, CCK-8, 24 h treatment, n = 3",30.9 ± 2.28 µM
